Laboratory results taken from US11931424B2, “Combination MCL-1 inhibitors with anti-body drug conjugates” (Gilead Sciences, Inc., priority 2021, dated 2024).
Counter-ions that a name gives are not always drawn.

What was measured:
[1] = test system: panel of breast cancer cell lines; test: Compound A with targeted agents and chemotherapies, 72-hour in vitro proliferation assays; assay type: cell-based; conditions: 72-hour proliferation
[2] = test system: panel of haematalogical cancer cell lines; test: Compound A with BTK inhibitors, 72-hour in vitro proliferation assays; assay type: cell-based; conditions: combination Compound A × listed BTK inhibitor, 72-hour proliferation

CC/C(=C(\c1ccccc1)c1ccc(OCCN(C)C)cc1)c1ccccc1 [Tamoxifen Citrate]
Best CI ([1]; AU565 cell line, compound A × partner): 0.63 | Best CI ([1]; BT-20 cell line, compound A × partner): 1.22 | Best CI ([1]; BT-474 cell line, compound A × partner): 0.67 | Best CI ([1]; BT-549 cell line, compound A × partner): 0.42 | Best CI ([1]; CAL-51 cell line, compound A × partner): 1.06 | Best CI ([1]; CAL-85-1 cell line, compound A × partner): 0.49 | Best CI ([1]; CAL-148 cell line, compound A × partner): 0.69 | Best CI ([1]; CAMA-1 cell line, compound A × partner): 0.27 | Best CI ([1]; DU-4475 cell line, compound A × partner): 0.80 | Best CI ([1]; EVSA-T cell line, compound A × partner): 0.68 | Best CI ([1]; HCC38, compound A × partner): 0.98 | Best CI ([1]; HCC70, compound A × partner): 0.50 | Best CI ([1]; HCC1143, compound A × partner): 0.19 | Best CI ([1]; HCC1569, compound A × partner): 0.50 | Best CI ([1]; HCC1806, compound A × partner): 0.84 | Best CI ([1]; HCC1937, compound A × partner): 1.02 | Best CI ([1]; HCC1954, compound A × partner): 0.18 | Best CI ([1]; HCC2218, compound A × partner): 0.45 | Best CI ([1]; HDQ-P1, compound A × partner): 0.94 | Best CI ([1]; HMC-1-8, compound A × partner): 0.58 | Best CI ([1]; JIMT-1, compound A × partner): 0.38 | Best CI ([1]; KPL-1, compound A × partner): 0.54 | Best CI ([1]; MCF7 cells, Compound A × partner agent): 0.41 | Best CI ([1]; MDA-MB-175-VII cells, Compound A × partner agent): 0.36 | Best CI ([1]; MDA-MB-231 cells, Compound A × partner agent): 1.06 | Best CI ([1]; MDA-MB-361 cells, Compound A × partner agent): 0.48 | Best CI ([1]; MDA-MB-436 cells, Compound A × partner agent): 0.30 | Best CI ([1]; MDA-MB-453 cells, Compound A × partner agent): 0.45 | Best CI ([1]; MDA-MB-468 cells, Compound A × partner agent): 0.61 | Best CI ([1]; SK-BR-3 cells, combination of compound A with the named agent): 0.66 | Best CI ([1]; SUM159PT cells, combination of compound A with the named agent): 0.20 | Best CI ([1]; T47D cells, combination of compound A with the named agent): 0.42 | Best CI ([1]; ZR-75-1 cells, combination of compound A with the named agent): 0.99 | Best CI ([1]; ZR-75-30 cells, combination of compound A with the named agent): 1.00

CC#CC(=O)N1CC[C@@H](n2c(=O)n(-c3ccc(Oc4ccccc4)cc3)c3c(N)ncnc32)C1 [Tirabrutinib]
Best CI ([2]; HBL-1 cells): 0.06 | Best CI Level ([2]; HBL-1 cells): 60 | Bliss Volume ([2]; HBL-1 cells): 3.09 | HSA volume ([2]; HBL-1 cells): 8.94 | Loewe Volume ([2]; HBL-1 cells): 8.17 | Synergy Score ([2]; HBL-1 cells): 7.02 | Best CI ([2]; OCI-Ly10 cells): 0.63 | Best CI Level ([2]; OCI-Ly10 cells): 80 | Bliss Volume ([2]; OCI-Ly10 cells): 0.21 | HSA volume ([2]; OCI-Ly10 cells): 3.22 | Loewe Volume ([2]; OCI-Ly10 cells): 1.63 | Synergy Score ([2]; OCI-Ly10 cells): 2.72 | Best CI ([2]; SU-DHL-2 cells): 0.42 | Best CI Level ([2]; SU-DHL-2 cells): 20 | Bliss Volume ([2]; SU-DHL-2 cells): 0.39 | HSA volume ([2]; SU-DHL-2 cells): −0.97 | Loewe Volume ([2]; SU-DHL-2 cells): 1.23 | Synergy Score ([2]; SU-DHL-2 cells): 0.98 | Best CI ([2]; SU-DHL-4 cells): 0.84 | Best CI Level ([2]; SU-DHL-4 cells): 20 | Bliss Volume ([2]; SU-DHL-4 cells): 1.52 | HSA volume ([2]; SU-DHL-4 cells): −2.97 | Loewe Volume ([2]; SU-DHL-4 cells): −0.81 | Synergy Score ([2]; SU-DHL-4 cells): 1.10 | Best CI ([2]; SU-DHL-8 cells): 0.45 | Best CI Level ([2]; SU-DHL-8 cells): 20 | Bliss Volume ([2]; SU-DHL-8 cells): 4.13 | HSA volume ([2]; SU-DHL-8 cells): −6.01 | Loewe Volume ([2]; SU-DHL-8 cells): −3.72 | Synergy Score ([2]; SU-DHL-8 cells): 0.60 | Best CI ([2]; TMD8 cells): 0.87 | Best CI Level ([2]; TMD8 cells): 20 | Bliss Volume ([2]; TMD8 cells): 1.28 | HSA volume ([2]; TMD8 cells): 3.05 | Loewe Volume ([2]; TMD8 cells): 1.96 | Synergy Score ([2]; TMD8 cells): 2.92 | Best CI ([2]; U-2932 cells): 0.62 | Best CI Level ([2]; U-2932 cells): 65 | Bliss Volume ([2]; U-2932 cells): 1.92 | HSA volume ([2]; U-2932 cells): 4.85 | Loewe Volume ([2]; U-2932 cells): 4.66 | Synergy Score ([2]; U-2932 cells): 3.69

C=CC(=O)N1CCC([C@@H]2CCNc3c(C(N)=O)c(-c4ccc(Oc5ccccc5)cc4)nn32)CC1 [Zanubrutinib]
Best CI ([2]; HBL-1 cells): 0.05 | Best CI Level ([2]; HBL-1 cells): 55 | Bliss Volume ([2]; HBL-1 cells): 5.13 | HSA volume ([2]; HBL-1 cells): 10.34 | Loewe Volume ([2]; HBL-1 cells): 9.75 | Synergy Score ([2]; HBL-1 cells): 8.18 | Best CI ([2]; OCI-Ly10 cells): 0.50 | Best CI Level ([2]; OCI-Ly10 cells): 80 | Bliss Volume ([2]; OCI-Ly10 cells): 1.36 | HSA volume ([2]; OCI-Ly10 cells): 3.82 | Loewe Volume ([2]; OCI-Ly10 cells): 3.55 | Synergy Score ([2]; OCI-Ly10 cells): 4.04 | Best CI ([2]; SU-DHL-2 cells): 0.86 | Best CI Level ([2]; SU-DHL-2 cells): 40 | Bliss Volume ([2]; SU-DHL-2 cells): 1.42 | HSA volume ([2]; SU-DHL-2 cells): 0.63 | Loewe Volume ([2]; SU-DHL-2 cells): 1.23 | Synergy Score ([2]; SU-DHL-2 cells): 0.72 | Best CI ([2]; SU-DHL-4 cells): 1.06 | Best CI Level ([2]; SU-DHL-4 cells): 20 | Bliss Volume ([2]; SU-DHL-4 cells): 0.06 | HSA volume ([2]; SU-DHL-4 cells): −4.15 | Loewe Volume ([2]; SU-DHL-4 cells): −4.24 | Synergy Score ([2]; SU-DHL-4 cells): 0.76 | Best CI ([2]; SU-DHL-8 cells): 0.52 | Best CI Level ([2]; SU-DHL-8 cells): 30 | Bliss Volume ([2]; SU-DHL-8 cells): −5.98 | HSA volume ([2]; SU-DHL-8 cells): −5.32 | Loewe Volume ([2]; SU-DHL-8 cells): −5.81 | Synergy Score ([2]; SU-DHL-8 cells): 0.66 | Best CI ([2]; TMD8 cells): 0.07 | Best CI Level ([2]; TMD8 cells): 80 | Bliss Volume ([2]; TMD8 cells): 2.31 | HSA volume ([2]; TMD8 cells): 4.24 | Loewe Volume ([2]; TMD8 cells): 3.33 | Synergy Score ([2]; TMD8 cells): 3.91 | Best CI ([2]; U-2932 cells): 0.54 | Best CI Level ([2]; U-2932 cells): 65 | Bliss Volume ([2]; U-2932 cells): 5.21 | HSA volume ([2]; U-2932 cells): 7.71 | Loewe Volume ([2]; U-2932 cells): 7.67 | Synergy Score ([2]; U-2932 cells): 4.92
